From BigSolDB 2.1

Q: What does the source list for `CCCCc1nc(Cl)c(C(=O)OCOC(=O)OC(C)C)n1Cc1ccc(-c2ccccc2-c2nn[nH]n2)cc1`?
A: solubility (mole fraction) (in acetone, 278.15 K): 0.00987; solubility (mole fraction) (in acetone, 283.15 K): 0.0112; solubility (mole fraction) (in acetone, 288.15 K): 0.0132; solubility (mole fraction) (in acetone, 293.15 K): 0.0155; solubility (mole fraction) (in acetone, 298.15 K): 0.019; solubility (mole fraction) (in acetone, 303.15 K): 0.0234; solubility (mole fraction) (in acetone, 308.15 K): 0.0299; solubility (mole fraction) (in acetone, 313.15 K): 0.0364; solubility (mole fraction) (in acetonitrile, 278.15 K): 0.00131; solubility (mole fraction) (in acetonitrile, 283.15 K): 0.00154; solubility (mole fraction) (in acetonitrile, 288.15 K): 0.00195; solubility (mole fraction) (in acetonitrile, 293.15 K): 0.00247; solubility (mole fraction) (in acetonitrile, 298.15 K): 0.00326; solubility (mole fraction) (in acetonitrile, 303.15 K): 0.00445; solubility (mole fraction) (in acetonitrile, 308.15 K): 0.00597; solubility (mole fraction) (in acetonitrile, 313.15 K): 0.00816; solubility (mole fraction) (in methanol, 278.15 K): 0.00111; solubility (mole fraction) (in methanol, 283.15 K): 0.00128; solubility (mole fraction) (in methanol, 288.15 K): 0.00156; solubility (mole fraction) (in methanol, 293.15 K): 0.00209; solubility (mole fraction) (in methanol, 298.15 K): 0.00277; solubility (mole fraction) (in methanol, 303.15 K): 0.00361; solubility (mole fraction) (in methanol, 308.15 K): 0.00508; solubility (mole fraction) (in methanol, 313.15 K): 0.00772
